Paper PMC12606464, “Investigating NFE2L1 activators for targeted protein aggregate clearance: a follow-up study” (RSC Medicinal Chemistry, 2025)

Tests used:
HEK293 cells = experiment: alamarBlue cytotoxicity assessment in HEK293 cells; assay type: cell-based, human; conditions: 16 h
Method: Figure S2: Concentration-dependent cytotoxicity assessment of RUN compounds.
HEK293 cells were treated for 16 hours with increasing concentrations of RUN compounds (1.25 µM; 2.5 µM; 5; 7.5 and 10 µM) or DMSO (negative control). Cell viability was determined using the alamarBlue assay following the protocol of Riss.(1) Data are presented as means ± SD from three independent experiments (n = 3). Statistical analysis was done using repeated measures one-way ANOVA with Geisser–Greenhouse correction, followed by Dunnett’s multiple comparisons test. *p<0.05. Detailed results of the analysis are shown in […]
(1 picture or pasted object on this page, not shown here)
(§1) 2 Biology Experimental Procedures
(§2) Safety statement: No unexpected or unusually high safety hazards were encountered. […]
Cell lines were sourced from the ATCC (USA) and/or ECACC (UK), namely HCT116 (human colorectal carcinoma), ATCC CCL-247 (RRID:CVCL_0291), HEK-293 (human embryonic kidney), ATCC CRL-1573 (RRID:CVCL_0045), SH-SY5Y (human neuroblastoma), ATCC CRL-2266 (RRID:CVCL_0019). The characteristics of DDI2 knockout cells derived from HCT116 cells have been described previously (Sedlacek et al., 2025). All cell lines were tested for mycoplasma contamination. Most of the cell lines were cultured in Dulbecco's Modified Eagle Medium (DMEM) enriched with 10% fetal bovine serum (FBS) and 2 mM L-glutamine, under standard conditions of 37 °C with 5% CO₂. DNA transfection was performed with Lipofectamine 2000, following the manufacturer's instructions. Transgenic cells were then selected with either G418 (400 µg/mL) or hygromycin B (450 µg/mL), based on the selection marker encoded by the plasmid used. […]

NFE2L1 pathway = experiment: 3×PSMA4-ARE-LUC dual luciferase reporter assay in HEK293 cells; assay type: cell-based, human; conditions: Homo sapiens; 5 μM, 16 h, HEK293, luminescence relative to DMSO-treated cells; read-out: NFE2L1 activation [5 μM]
Text: In our previous work,[43] we developed a library of NFE2L1 stimulators using a cell-based luciferase reporter assay. This system was based on three tandem copies of the antioxidant response element (ARE) derived from the NFE2L1 target gene proteasome subunit alpha type-4 (3xPSMA4, PSMA4-ARE-LUC). It was designed to detect the proteasome “bounce-back” response induced by proteasome inhibitors such as MG132 or bortezomib.[22,43,45,46] The reporter assay was adapted to a 384-well format and used to evaluate a new set of RUN compounds designed around the structural framework of the RUN-47 activator. We focused on identifying compounds that increased the 3×PSMA4-ARE-LUC signal (Fig. 1A), while simultaneously assessing cytotoxicity (see the SI, Fig. S2). […] In contrast, thiourea- and urea-containing derivatives generally produced only weak to intermediate responses, rarely exceeding a fold change of 7.
Fig. 1 (A) Targeted library screening of RUN compounds using the 3×PSMA4-ARE-LUC dual reporter assay in HEK293 cells. Cells were exposed to RUN compounds (5 μM) for 16 hours, and luciferase activity was measured. Data are presented as the mean ± SD from three independent experiments (n = 3). Results are shown as a fold change in luminescence relative to DMSO-treated cells. Selected hit compounds are highlighted in distinct colours. (B) RUN-89 specifically activates the NFE2L1 pathway. The DDI2 knockout (KO) and parental (WT) HCT116 cells were transfected with the 3×PSMA4-ARE-LUC reporter and treated with 0.5 μM bortezomib (BTZ) and 5 μM RUN-89 for 16 hours. Data are presented as the Geomean ± GeoSD of three independent experiments (n = 3). Statistical analysis was performed on log2-transformed values using two-way repeated-measures ANOVA followed by Šídak's multiple comparison test. (C) RUN-89 selectively triggers downstream signaling events associated with NFE2L1 gene expression. HEK293 cells were transfected with lipid nanoparticles (LNPs) carrying siRNAs targeting NFE2L1 or NFE2L2. LNPs formulated with non-targeting siRNA served as a negative control. Following 24 hours of incubation, cells were treated with 7.5 μM RUN-89 or DMSO (vehicle) for an additional 16 hours. Expression of the proteasomal subunit gene PSMC4 was then quantified by RT-qPCR. Data are shown as the Geomean ± GeoSD from three independent biological replicates (n = 3). Log2-transformed data were analyzed using two-way repeated-measures ANOVA with the Geisser–Greenhouse correction, followed by Tukey's multiple comparison test with individual variances computed for each comparison. Additional results for NFE2L1, NFE2L2, PSMB7, and PSMD12 are presented in SI Fig. S10.
Figure S1: Concentration–response of luciferase cell-based assay (PSMA4-ARE-luc2P reporter) on treatment with RUN-81, RUN-89, and RUN-94. Concentration is plotted on the X-axis. Dose–response relationships were analyzed using a four-parameter logistic curve (4PL), or a bell-shaped dose-response curve, both with weighting 1/Y^2. Dotted lines represent 95% confidence bands. Calculated EC₅₀ values, curve parameters, and asymmetrical confidence intervals are summarized in the accompanying table . Data are presented as mean ± SD from four independent experiments (n=4).
as §1, §2
Most of the cell lines were cultured in Dulbecco's Modified Eagle Medium (DMEM) enriched with 10% fetal bovine serum (FBS) and 2 mM L-glutamine, under standard conditions of 37 °C with 5% CO₂. DNA transfection was performed with Lipofectamine 2000, following the manufacturer's instructions. Transgenic cells were then selected with either G418 (400 µg/mL) or hygromycin B (450 µg/mL), based on the selection marker encoded by the plasmid used. Cell viability was evaluated using the […]

[1] = HEK293, alamarBlue, concentration not given

SMILES	Tox [% of ctrl.] (HEK293 cells; [1])	fold induction at 5 µM (NFE2L1 pathway)	Tox [% of ctrl.] (HEK293 cells; human)
COc1ccc(/C=C2\CC(NC(=O)C3CCC(=O)N3)C/C(=C\c3ccc(OC)c(OC)c3)C2=O)cc1OC (centres unmarked) [RUN-97]	99% of ctrl.	1.6	–
COc1ccc(/C=C2\CN(C(=O)Cc3c[nH]cn3)C/C(=C\c3ccc(OC)c(OC)c3)C2=O)cc1OC [RUN-109]	78% of ctrl.	4.3	–
COc1ccc(/C=C2\CN(C(=O)C3CCCC3)C/C(=C\c3ccc(OC)c(OC)c3)C2=O)cc1OC [RUN-103]	80% of ctrl.	9.4	–
COc1ccc(/C=C2\CC(NC(=O)Cn3ccnc3)C/C(=C\c3ccc(OC)c(OC)c3)C2=O)cc1OC (centres unmarked) [RUN-99]	103% of ctrl.	1.6	–
COc1cccc(NC(=O)N2C/C(=C\c3ccc(OC)c(OC)c3)C(=O)/C(=C/c3ccc(OC)c(OC)c3)C2)c1 [RUN-76]	88% of ctrl.	6.8	–
COc1ccc(/C=C2\CC(NC(=O)c3ncccc3C)C/C(=C\c3ccc(OC)c(OC)c3)C2=O)cc1OC (centres unmarked) [RUN-93]	75% of ctrl.	11.9	–
COc1ccc(/C=C2\CN(C(=O)C3CCCN3)C/C(=C\c3ccc(OC)c(OC)c3)C2=O)cc1OC (centres unmarked) [RUN-113]	94% of ctrl.	3.8	–
COc1ccc(/C=C2\CN(C(=S)Nc3cccnc3)C/C(=C\c3ccc(OC)c(OC)c3)C2=O)cc1OC [RUN-73]	84% of ctrl.	1.9	–
COc1ccc(/C=C2\CN(C(=O)Cn3ccnc3)C/C(=C\c3ccc(OC)c(OC)c3)C2=O)cc1OC [RUN-111]	78% of ctrl.	2.7	–
COc1ccc(/C=C2\CN(C(=O)CCN(C)C)C/C(=C\c3ccc(OC)c(OC)c3)C2=O)cc1OC.O=C(O)C(F)(F)F [RUN-114]	92% of ctrl.	3.1	–
COc1ccc(/C=C2\CN(C(=O)CN3CCN(C)CC3)C/C(=C\c3ccc(OC)c(OC)c3)C2=O)cc1OC [RUN-105]	78% of ctrl.	4.5	–
COc1ccc(/C=C2\CN(C(=O)CCCN(C)C)C/C(=C\c3ccc(OC)c(OC)c3)C2=O)cc1OC.O=C(O)C(F)(F)F [RUN-106]	75% of ctrl.	2.8	–
COc1ccc(/C=C2\CN(C(=O)CCCN)C/C(=C\c3ccc(OC)c(OC)c3)C2=O)cc1OC [RUN-115]	85% of ctrl.	1.8	–
COc1ccc(/C=C2\CC(NC(=O)[C@@H]3CCCN3)C/C(=C\c3ccc(OC)c(OC)c3)C2=O)cc1OC.O=C(O)C(F)(F)F (some centres unmarked) [RUN-96]	93% of ctrl.	2.2	–
COc1ccc(/C=C2/C(=O)/C(=C/c3ccc(OC)c(OC)c3)C3CCC2N3Cc2ccc(C#N)cc2)cc1OC [RUN-80]	–	2	98% of ctrl.
COc1ccc(/C=C2\CN(C(=O)c3ccccn3)C/C(=C\c3ccc(OC)c(OC)c3)C2=O)cc1OC [RUN-108]	83% of ctrl.	0.9	–
COc1ccc(/C=C2\CN(C(=O)[C@@H]3CCC(=O)N3)C/C(=C\c3ccc(OC)c(OC)c3)C2=O)cc1OC [RUN-110]	85% of ctrl.	1.8	–
COc1ccc(/C=C2\CN(C(=O)CN)C/C(=C\c3ccc(OC)c(OC)c3)C2=O)cc1OC [RUN-85]	–	2.7	–
CCOC(=O)CCNC(=O)N1C/C(=C\c2ccc(OC)c(OC)c2)C(=O)/C(=C/c2ccc(OC)c(OC)c2)C1 [RUN-75]	82% of ctrl.	6.8	–
COc1ccc(/C=C2\CC(NC(=O)C34CCN(CC3)CC4)C/C(=C\c3ccc(OC)c(OC)c3)C2=O)cc1OC (centres unmarked) [RUN-87]	–	1	101% of ctrl.
COc1ccc(/C=C2\CC(NC(=O)CN3CCN(C)CC3)C/C(=C\c3ccc(OC)c(OC)c3)C2=O)cc1OC (centres unmarked) [RUN-90]	87% of ctrl.	2.8	–
COc1ccc(/C=C2\CC(NC(=O)CN)C/C(=C\c3ccc(OC)c(OC)c3)C2=O)cc1OC.O=C(O)C(F)(F)F (centres unmarked) [RUN-92]	90% of ctrl.	1.6	–
COc1ccc(/C=C2\CC(NC(=O)CCN)C/C(=C\c3ccc(OC)c(OC)c3)C2=O)cc1OC (centres unmarked) [RUN-104]	105% of ctrl.	0.8	–
COc1ccc(/C=C2\CC(NC(=O)CCCN)C/C(=C\c3ccc(OC)c(OC)c3)C2=O)cc1OC.O=C(O)C(F)(F)F (centres unmarked) [RUN-100]	100% of ctrl.	1.2	–
COc1ccc(/C=C2\CC(NC(=O)CCCN(C)C)C/C(=C\c3ccc(OC)c(OC)c3)C2=O)cc1OC (centres unmarked) [RUN-91]	95% of ctrl.	1.6	–
COc1ccc(/C=C2/C(=O)/C(=C/c3ccc(OC)c(OC)c3)C3CCC2N3CCN2CCOCC2)cc1OC [RUN-79]	–	0.9	104% of ctrl.
CCN(CC)CC(=O)NC1C/C(=C\c2ccc(OC)c(OC)c2)C(=O)/C(=C/c2ccc(OC)c(OC)c2)C1 (centres unmarked) [RUN-102]	96% of ctrl.	1.3	–
COc1ccc(/C=C2\CN(C(=O)C34CCN(CC3)CC4)C/C(=C\c3ccc(OC)c(OC)c3)C2=O)cc1OC [RUN-83]	–	1.5	87% of ctrl.
COc1ccc(/C=C2\CN(C(=O)CCN)C/C(=C\c3ccc(OC)c(OC)c3)C2=O)cc1OC [RUN-117]	83% of ctrl.	1	–
COc1ccc(/C=C2\CN(C(=S)NCCN3CCOCC3)C/C(=C\c3ccc(OC)c(OC)c3)C2=O)cc1OC [RUN-77]	84% of ctrl.	2.5	–
